# Measurements: patent publication US8912190B2, “Substituted heterocyclic compounds” (Gilead Sciences, Inc., priority 2008, dated 2014)
# Tests used:
# hERG potassium channel = biological target: T1, hERG potassium channel (Homo sapiens, UniProt Q12809); experiment: hERG screening assay (PatchXpress patch clamp, CHO cells); type: cell-based; conditions: CHO cells expressing hERG
# T1 construct: expressed in transfected cells; host or cells: CHO (Chinese Hamster Ovary)
# Description: Compounds were screened to test their activity in blocking the hERG potassium channel. The hERG channel is heterologously expressed in a CHO (Chinese Hamster Ovary) cell line. Cells were maintained with standard tissue culture procedures and stable channel expression was maintained with 500 μg/ml G418 in the culture medium. Cells were harvested for testing on the PatchXpress automated patch clamp with Accumax (Innovative Cell Technologies, San Diego, Calif.) to isolate single cells.
# The following solutions were used for electrophysiological recordings. The external solution contained: 2 mM CaCl2; 2 mM MgCl2; 4 mM KCl; 150 mM NaCl; 10 mM Glucose; 10 mM HEPES (pH 7.4 with 1M NaOH, osmolarity). The internal solution contained: 140 mM KCl, 10 mM MgCl2, 6 mM EGTA, 5 mM HEPES, 5 mM ATP (pH adjusted to 7.25 with KOH).
# hERG channels were activated when the voltage was stepped to +20 mV from the −80 mV holding potential. During a 5 second step at +20 mV, the channels activated and then largely inactivated, so the currents were relatively small. Upon returning to −50 mV from +20 mV, hERG currents transiently became much larger as inactivation was rapidly removed and then the channel closed. The first step to −50 mV for 300 ms was used as a baseline for measuring the peak amplitude during the step to −50 mV after channel activation. The peak current at −50 mV was measured both under control conditions and after addition of compound.
# All compounds were prepared as 10 mM DMSO stocks in glass vials. Stock solutions were mixed by vigorous vortexing and sonication for about 2 minutes at room temperature. For testing, compounds were diluted in glass vials using an intermediate dilution step in pure DMSO and then further diluted to working concentrations in external solution. Dilutions were prepared no longer than 20 minutes before use.
# After achieving the whole-cell configuration, cells were monitored for 90 seconds to assess stability and washed with external solution for 66 seconds. The voltage protocol described above was then applied to the cells every 12 seconds and throughout the whole procedure. Only cells with stable recording parameters and meeting specified health criteria were allowed to enter the compound addition procedure.
# External solution containing 0.1% DMSO (vehicle) was applied to the cells first to establish the control peak current amplitude. After allowing the current to stabilize for […], 1 μM and then 10 μM test compounds were applied. Each compound concentration was added 4 times and cells were kept in test solution until the effect of the compound reached steady state or for a maximum of 12 minutes. After addition of test compound, a positive control (1 μM Cisapride) was added, and must block >95% of the current for the experiment to be considered valid. Washout in the external solution compartment was performed until the recovery of the current reached steady state. Data was analyzed using DataXpress, Clampfit (Molecular Devices, Inc., Sunnyvale) and Origin 7 (Originlab Corp.)
# [1] = biological target: T2, wild-type human cardiac sodium channel, hNav1.5 (Homo sapiens, UniProt Q14524); experiment: Late INa screening assay (PatchXpress whole cell patch clamp); type: cell-based; conditions: compound at 10 uM; HEK293 hNav1.5; late INa generated with Tefluthrin or ATX II; read-out: Late INa 10 uM (percent block of late INa)
# T2 construct: host or cells: HEK293
# T2 sequence (Q14524 whole entry): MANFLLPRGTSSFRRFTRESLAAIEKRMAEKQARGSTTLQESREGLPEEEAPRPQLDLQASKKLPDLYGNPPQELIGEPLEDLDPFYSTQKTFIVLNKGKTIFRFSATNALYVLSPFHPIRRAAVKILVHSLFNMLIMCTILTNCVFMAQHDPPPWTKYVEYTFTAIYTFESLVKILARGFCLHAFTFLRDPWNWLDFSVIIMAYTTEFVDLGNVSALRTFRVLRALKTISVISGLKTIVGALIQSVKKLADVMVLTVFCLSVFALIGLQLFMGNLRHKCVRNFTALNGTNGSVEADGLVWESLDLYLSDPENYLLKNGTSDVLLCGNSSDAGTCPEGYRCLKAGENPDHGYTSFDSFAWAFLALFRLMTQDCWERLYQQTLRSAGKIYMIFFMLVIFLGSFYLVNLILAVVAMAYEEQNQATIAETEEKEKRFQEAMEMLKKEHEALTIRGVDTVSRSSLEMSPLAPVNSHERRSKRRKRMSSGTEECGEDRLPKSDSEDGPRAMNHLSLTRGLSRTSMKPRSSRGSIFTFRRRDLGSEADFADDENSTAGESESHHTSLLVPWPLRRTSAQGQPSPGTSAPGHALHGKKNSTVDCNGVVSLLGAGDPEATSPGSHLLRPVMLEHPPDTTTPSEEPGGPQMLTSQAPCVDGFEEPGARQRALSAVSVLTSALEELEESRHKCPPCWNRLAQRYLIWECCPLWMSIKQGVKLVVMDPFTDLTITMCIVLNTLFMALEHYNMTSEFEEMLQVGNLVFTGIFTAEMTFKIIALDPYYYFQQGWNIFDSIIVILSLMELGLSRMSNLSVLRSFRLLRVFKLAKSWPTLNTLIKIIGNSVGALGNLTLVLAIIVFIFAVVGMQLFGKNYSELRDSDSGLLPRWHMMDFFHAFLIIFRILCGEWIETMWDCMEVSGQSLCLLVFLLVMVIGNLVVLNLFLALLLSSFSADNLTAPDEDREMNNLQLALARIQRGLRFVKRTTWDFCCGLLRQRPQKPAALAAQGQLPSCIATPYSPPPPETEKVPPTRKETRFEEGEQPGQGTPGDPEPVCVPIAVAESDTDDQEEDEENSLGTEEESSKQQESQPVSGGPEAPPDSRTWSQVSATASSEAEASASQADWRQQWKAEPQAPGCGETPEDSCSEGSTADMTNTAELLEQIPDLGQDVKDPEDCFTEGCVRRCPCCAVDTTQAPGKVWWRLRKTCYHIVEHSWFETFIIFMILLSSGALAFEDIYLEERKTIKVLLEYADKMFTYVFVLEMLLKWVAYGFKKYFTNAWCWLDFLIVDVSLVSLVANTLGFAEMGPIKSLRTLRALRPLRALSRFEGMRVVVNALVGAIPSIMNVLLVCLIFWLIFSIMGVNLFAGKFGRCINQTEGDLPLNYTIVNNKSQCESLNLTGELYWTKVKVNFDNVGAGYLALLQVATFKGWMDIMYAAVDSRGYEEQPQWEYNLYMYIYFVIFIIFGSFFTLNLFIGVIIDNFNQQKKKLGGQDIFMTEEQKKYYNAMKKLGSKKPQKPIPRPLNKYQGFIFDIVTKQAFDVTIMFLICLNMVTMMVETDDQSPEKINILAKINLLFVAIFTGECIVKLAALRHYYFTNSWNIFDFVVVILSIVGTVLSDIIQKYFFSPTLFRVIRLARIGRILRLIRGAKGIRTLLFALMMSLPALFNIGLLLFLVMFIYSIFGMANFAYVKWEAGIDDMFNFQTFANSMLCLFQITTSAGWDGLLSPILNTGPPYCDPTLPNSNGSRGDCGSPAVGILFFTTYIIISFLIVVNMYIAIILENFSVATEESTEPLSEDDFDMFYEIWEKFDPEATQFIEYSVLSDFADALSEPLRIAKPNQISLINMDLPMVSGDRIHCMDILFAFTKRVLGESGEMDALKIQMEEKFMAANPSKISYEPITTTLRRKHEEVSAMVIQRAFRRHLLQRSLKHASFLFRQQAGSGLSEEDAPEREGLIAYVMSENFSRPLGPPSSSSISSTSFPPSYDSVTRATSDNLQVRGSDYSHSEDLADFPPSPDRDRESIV
# Description: The late sodium current (Late INa) and peak sodium current (Peak INa) assays were performed on an automated electrophysiology platform, PatchXpress 7000A (MDS Analytical Technologies, Sunnyvale, Calif.), using the whole cell patch clamp technique to measure currents through the cell membrane of up to 16 cells at a time. The assay used an HEK293 (human embryonic kidney) cell line heterologously expressing the wild-type human cardiac sodium channel, hNav1.5, purchased from Millipore (Billerica, Mass.). No beta subunits were coexpressed with the Na channel alpha subunit. Cells were maintained with standard tissue culture procedures, and stable channel expression was maintained with 400 μg/ml Geneticin in the culture medium. Cells isolated for use on PatchXpress were incubated for 5 minutes in Versene 1× and then for 2 minutes in 0.0125% Trypsin-EDTA (both at 37° C.) to ensure that 80-90% of the cells are single and not part of a cell cluster. Experiments were carried out at 24-27° C.
# For both the Late INa and Peak INa assays, series resistance compensation was set to 50% and whole-cell compensation was performed automatically. Currents were low-pass filtered at 10 kHz and digitized at 31.25 kHz. Currents through open sodium channels were automatically recorded and stored in the DataXpress2 database (MDS Analytical Technologies, Sunnyvale, Calif.). Analysis was performed using DataXpress2 analysis software and data are compiled in Excel.
# Compound stocks were routinely made in glass vials to 10 mM in dimethyl sulfoxide (DMSO). In some cases, when compounds were not soluble in DMSO, they are made in 100% ethanol. Stocks were sonicated as necessary. The extracellular solution for screening Late INa was composed of: 140 mM NaCl, 4 mM KCl, 1.8 mM CaCl2, 0.75 mM MgCl2, and 5 mM HEPES with pH adjusted to 7.4 using NaOH. The extracellular solution for screening Peak INa was composed of: 20 mM NaCl, 120 mM N-methyl-D glucamine, 4 mM KCl, 1.8 mM CaCl2, 0.75 mM MgCl2, and 5 mM HEPES with pH adjusted to 7.4 using HCl. The intracellular solution used to perfuse the inside of the cells for both the Late INa and Peak INa assays contained: 120 mM CsF, 20 mM CsCl, 5 mM EGTA, 5 mM HEPES and pH adjusted to 7.4 with CsOH. Compounds were diluted in extracellular solution to […] in glass vials and then transferred to glass well plates before robotic addition to the cells. The 0Na extracellular solution used at the end of each experiment for the Late INa and Peak INa assays to measure baseline current contained: 140 mM N-methyl-D-glucamine; 4 mM KCl; 1.8 mM CaCl2; 0.75 mM MgCl2; 5 mM HEPES and pH was adjusted to 7.4 with HCl.
# For the Late INa assay, sodium channels were activated every 10 seconds (0.1 Hz) by depolarizing the cell membrane to −20 mV for 250 milliseconds (ms) from a holding potential of −120 mV. In response to a −20 mV voltage step, typical Nav1.5 sodium currents activated rapidly to a peak negative current and then inactivated nearly completely within 3-4 ms.
# All compounds were tested to determine their activity in blocking the late sodium current. Late INa current was generated by adding 10 μM Tefluthrin (pyrethroid) to the extracellular solution while recording Na currents. For some experiments, 50 nM ATX II (sea anemone toxin), another late INa activator, was used to generate the late component. Both activators generated late components that are large, and thus block of the late component by compounds could be measured easily. For the purposes of the screening, late INa is defined as the mean current between 225 ms and 250 ms after stepping to −20 mV to activate Na channels. After establishing the whole cell recording configuration, late INa activators were added to each well 4 times over a 16-17 minute period so that the late component of the Na current reached a stable value. Compounds were then added (typically at 10 μM), in the presence of late INa activator, with 3 additions over the course of 7 or 8 minutes. […]
# T1 sequence (Q12809 whole entry): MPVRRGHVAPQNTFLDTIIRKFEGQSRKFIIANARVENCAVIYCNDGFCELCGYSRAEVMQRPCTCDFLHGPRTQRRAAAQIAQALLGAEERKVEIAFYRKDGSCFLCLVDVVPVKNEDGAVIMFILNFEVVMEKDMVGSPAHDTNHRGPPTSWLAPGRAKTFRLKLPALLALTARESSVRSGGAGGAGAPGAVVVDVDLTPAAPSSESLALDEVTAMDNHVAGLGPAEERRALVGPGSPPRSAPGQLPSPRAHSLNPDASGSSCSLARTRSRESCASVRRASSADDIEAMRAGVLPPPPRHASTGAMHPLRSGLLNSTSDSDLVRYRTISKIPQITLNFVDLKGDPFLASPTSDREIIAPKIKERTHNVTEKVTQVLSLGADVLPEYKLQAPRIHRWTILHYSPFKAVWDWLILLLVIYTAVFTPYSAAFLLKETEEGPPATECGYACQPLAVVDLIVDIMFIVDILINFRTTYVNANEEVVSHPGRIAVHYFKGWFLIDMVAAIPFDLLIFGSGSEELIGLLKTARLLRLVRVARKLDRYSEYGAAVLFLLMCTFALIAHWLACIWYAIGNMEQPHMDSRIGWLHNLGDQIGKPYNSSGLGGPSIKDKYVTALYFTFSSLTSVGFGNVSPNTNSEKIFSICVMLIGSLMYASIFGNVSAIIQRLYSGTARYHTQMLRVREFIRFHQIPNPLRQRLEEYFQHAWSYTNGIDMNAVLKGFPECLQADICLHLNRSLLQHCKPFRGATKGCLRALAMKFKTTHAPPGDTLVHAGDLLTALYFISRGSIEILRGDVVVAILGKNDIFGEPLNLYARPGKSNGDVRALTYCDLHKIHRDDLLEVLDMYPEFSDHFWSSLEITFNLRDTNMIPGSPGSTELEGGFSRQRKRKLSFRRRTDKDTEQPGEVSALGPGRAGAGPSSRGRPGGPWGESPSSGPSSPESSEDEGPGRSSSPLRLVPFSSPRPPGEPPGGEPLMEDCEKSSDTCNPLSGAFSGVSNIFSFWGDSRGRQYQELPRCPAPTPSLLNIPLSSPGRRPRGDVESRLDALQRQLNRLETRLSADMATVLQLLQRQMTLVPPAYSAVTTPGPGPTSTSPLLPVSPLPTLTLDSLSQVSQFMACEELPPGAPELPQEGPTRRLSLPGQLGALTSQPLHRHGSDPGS
smiles,measurement,setting,value
"Cc1nc2cc(-c3cccc(OC(F)(F)F)c3)ccc2n(C)c1=O [1,3-dimethyl-6-[3-(trifluoromethoxy)phenyl] quinoxalin-2(1H)-one]",HERG 1 uM (block of hERG current),hERG potassium channel; compound at 1 uM,19.5%
same,HERG 10 uM (block of hERG current),hERG potassium channel; compound at 10 uM,71.5%
same,inhibition at 10 µM,[1],70.9%
